Structures are written as SMILES.

In assay [1] the target is T1, steroid sulfatase (STS) (Homo sapiens, UniProt P08842).
T1 sequence (P08842 22-583): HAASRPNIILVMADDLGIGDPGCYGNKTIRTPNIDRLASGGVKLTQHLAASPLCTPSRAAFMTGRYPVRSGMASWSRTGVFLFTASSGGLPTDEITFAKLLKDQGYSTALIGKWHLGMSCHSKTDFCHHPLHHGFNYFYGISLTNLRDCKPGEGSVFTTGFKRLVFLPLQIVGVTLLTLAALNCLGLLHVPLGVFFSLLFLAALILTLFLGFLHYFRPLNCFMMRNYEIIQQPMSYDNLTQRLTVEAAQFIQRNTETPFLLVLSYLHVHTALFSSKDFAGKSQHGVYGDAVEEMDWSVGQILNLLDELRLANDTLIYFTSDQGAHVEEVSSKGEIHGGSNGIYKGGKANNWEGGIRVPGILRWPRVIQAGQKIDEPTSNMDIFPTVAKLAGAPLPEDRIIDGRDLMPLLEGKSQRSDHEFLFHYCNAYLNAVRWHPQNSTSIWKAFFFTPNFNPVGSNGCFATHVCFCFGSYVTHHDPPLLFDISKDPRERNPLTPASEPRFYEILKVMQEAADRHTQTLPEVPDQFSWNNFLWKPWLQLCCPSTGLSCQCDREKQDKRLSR
Kind of assay: STS inhibition in placental microsomes. The settings on record: 20 μM E1S; for inhibition at 0.1 µM: 0.1 μM inhibitor; for inhibition at 1 µM: 1 μM inhibitor; for inhibition at 0.01 µM: 0.01 μM inhibitor; for inhibition at 10 µM: 10 μM inhibitor. The format is biochemical. Also noted: a placental microsomal preparation from a sulfatase-positive human placenta from a normal term pregnancy; from tissue; host or cells: human placenta (microsomal preparation).

The target of assay [2] is T1, steroid sulfatase (STS). Kind of assay: STS inhibition in intact MCF-7 breast cancer cells. The format is cell-based. Also noted: endogenous in cells; host or cells: MCF-7 breast cancer cells. The settings on record: for inhibition at 0.01 µM: MCF7, read-out: % Inhibition of STS Activity in Intact MCF-7 Breast Cancer Cells at 0.01 μM; for inhibition at 0.1 µM: MCF7, read-out: % Inhibition of STS Activity in Intact MCF-7 Breast Cancer Cells at 0.1 μM; for inhibition at 1 µM: MCF7, read-out: % Inhibition of STS Activity in Intact MCF-7 Breast Cancer Cells at 1 μM; for inhibition at 10 µM: MCF7, read-out: % Inhibition of STS Activity in Intact MCF-7 Breast Cancer Cells at 10 μM; for IC50: 3 nM E1S.

The inhibition is the share of the control response that was lost under treatment. For the molecule `Cc1c(CC2CCCCC2)c(=O)oc2cc(OS(N)(=O)=O)ccc12` [compound 44, 3-Cyclohexylmethyl-4-methylcoumarin-7-O-sulfamate], at steroid sulfatase (STS) [1], at 0.1 µM the inhibition was 74% and the inhibition at 1 µM was found to be 99%.
What is called IC50 is the concentration that gives 50% inhibition. High values mean weaker potency in that assay, low ones greater potency in that assay. Consider `CCCCCCCCCc1cc(=O)oc2cc(OS(N)(=O)=O)ccc12` [compound 14, 4-Nonylcoumarin-7-O-sulfamate], for which, on steroid sulfatase (STS) [2], the inhibition at 0.01 µM is 90%, the inhibition at 0.1 µM came out at 96%, the inhibition at 1 µM is 98% and the inhibition at 10 µM worked out at 100%. On steroid sulfatase (STS) [1], this molecule gave an inhibition at 0.01 µM of 18%, an inhibition at 0.1 µM of 79%, an inhibition at 1 µM of 97% and an inhibition at 10 µM of 99%. At steroid sulfatase (STS) [1], this molecule displayed an IC50 of 60 nM.
In the case of `NS(=O)(=O)Oc1ccc2c(C3CCCCC3)cc(=O)oc2c1` [compound 26, 4-Cyclohexylcoumarin-7-O-sulfamate], at steroid sulfatase (STS) [2], half-maximal inhibition (IC50) required 24 nM, the inhibition at 0.01 µM came to 37%, the inhibition at 0.1 µM worked out at 72% and the inhibition at 1 µM was 80%. The inhibition at 10 µM on steroid sulfatase (STS) [2] turned out to be 93%. On steroid sulfatase (STS) [1], this molecule returned an inhibition at 0.01 µM of 9%, an inhibition at 0.1 µM of 69%, an inhibition at 1 µM of 94% and an inhibition at 10 µM of 99%. Further, it took 42 nM to reach half-maximal inhibition at steroid sulfatase (STS) [1] (IC50).
Consider `CCCCCCc1c(C)c2ccc(OS(N)(=O)=O)cc2oc1=O` [compound 29, 3-Hexyl-4-methylcoumarin-7-O-sulfamate], for which, on steroid sulfatase (STS) [2], the inhibition at 0.1 µM was 99%, the inhibition at 1 µM was found to be 100% and the inhibition at 10 µM is 100%. On steroid sulfatase (STS) [1], this molecule came in with an inhibition at 0.01 µM of 13%, an inhibition at 0.1 µM of 88%, an inhibition at 1 µM of 99% and an inhibition at 10 µM of 99%.
Regarding `CCc1ccc(-c2cc(=O)oc3cc(OS(N)(=O)=O)ccc23)cc1` [compound 25, 4-(4-Ethylphenyl)coumarin-7-O-sulfamate], at steroid sulfatase (STS) [2], the IC50 turned out to be 350 nM, the inhibition at 0.01 µM was found to be 6%, the inhibition at 0.1 µM stood at 24% and the inhibition at 1 µM was 73%. Also, the inhibition at 10 µM on steroid sulfatase (STS) [2] stood at 84%. On steroid sulfatase (STS) [1], this molecule yielded an inhibition at 1 µM of 27%, an inhibition at 10 µM of 85% and an IC50 of 2600 nM.
On steroid sulfatase (STS) [1], `CC(C)c1cc(=O)oc2cc(OS(N)(=O)=O)ccc12` [compound 19, 4-(Prop-2-yl)coumarin-7-O-sulfamate] displayed an inhibition at 0.1 µM of 86%, an inhibition at 1 µM of 90% and an inhibition at 10 µM of 94%.
For the molecule `CCCCCCCCCCCCc1cc(=O)oc2cc(OS(N)(=O)=O)ccc12` [compound 17, 4-Dodecylcoumarin-7-O-sulfamate], on steroid sulfatase (STS) [2], the inhibition at 0.01 µM came out at 22%, the inhibition at 0.1 µM amounted to 67%, the inhibition at 1 µM came out at 95% and the inhibition at 10 µM stood at 98%. In addition, on steroid sulfatase (STS) [1], 0.01 µM produced 17% inhibition, the inhibition at 0.1 µM came to 68%, at 1 µM the inhibition was 89% and 10 µM produced 96% inhibition. On steroid sulfatase (STS) [1], this molecule showed an IC50 of 45 nM.
As for `CCCCCCCCCCCCCc1cc(=O)oc2cc(OS(N)(=O)=O)ccc12` [compound 18, 4-Tridecylcoumarin-7-O-sulfamate], on steroid sulfatase (STS) [2], the IC50 was 3.2 nM, the inhibition at 0.01 µM turned out to be 72% and the inhibition at 0.1 µM was found to be 96%. On steroid sulfatase (STS) [1], the inhibition at 0.01 µM was determined as 7%, the inhibition at 0.1 µM was 55%, at 1 µM the inhibition was 80% and testing at 10 µM gave an inhibition of 91%. The molecule further showed an IC50 at steroid sulfatase (STS) [1] of 85 nM.
On to `CC(C)Cc1cc(=O)oc2cc(OS(N)(=O)=O)ccc12` [compound 20, 4-(1′,1′-Dimethylethyl)coumarin-7-O-sulfamate], for which, at steroid sulfatase (STS) [1], the inhibition at 0.1 µM was 19% and the inhibition at 1 µM was found to be 97%.
With `NS(=O)(=O)Oc1ccc2c(CCl)cc(=O)oc2c1` [compound 21, 4-Chloromethylcoumarin-7-O-sulfamate], at steroid sulfatase (STS) [2], the IC50 came to 220 nM, the inhibition at 0.01 µM came to 6%, the inhibition at 0.1 µM was found to be 33% and the inhibition at 1 µM came out at 82%. Moreover, the inhibition at 10 µM on steroid sulfatase (STS) [2] turned out to be 92%. Further, on steroid sulfatase (STS) [1], the inhibition at 0.01 µM came out at 10%, the inhibition at 0.1 µM worked out at 19%, the inhibition at 1 µM amounted to 59% and the inhibition at 10 µM stood at 94%. Further, the midpoint of inhibition at steroid sulfatase (STS) [1], the IC50, lay at 600 nM.
Consider `Cc1c(-c2ccccc2)c(=O)oc2cc(OS(N)(=O)=O)ccc12` [compound 40, 4-Methyl-3-phenylcoumarin-7-O-sulfamate], for which, at steroid sulfatase (STS) [2], the IC50 worked out at 25 nM, the inhibition at 0.01 µM was determined as 32% and the inhibition at 0.1 µM came to 75%. Further, at steroid sulfatase (STS) [1], the inhibition at 0.01 µM worked out at 8%, the inhibition at 0.1 µM was found to be 65%, the inhibition at 1 µM was determined as 95% and the inhibition at 10 µM worked out at 99%. In addition, on steroid sulfatase (STS) [1], the IC50 was 54 nM.
On to `CCCCCCCc1cc(=O)oc2cc(OS(N)(=O)=O)ccc12` [compound 12, 4-Heptylcoumarin-7-O-sulfamate], for which, on steroid sulfatase (STS) [2], the inhibition at 0.1 µM is 93%, the inhibition at 1 µM came to 95% and the inhibition at 10 µM came to 99%. Also, at steroid sulfatase (STS) [1], the inhibition at 0.01 µM worked out at 8%, 0.1 µM produced 64% inhibition, the inhibition at 1 µM is 97% and the inhibition at 10 µM was determined as 99%. For the same molecule, at steroid sulfatase (STS) [1], the IC50 was 90 nM.
Take `NS(=O)(=O)Oc1ccc2c(Cc3ccccc3)cc(=O)oc2c1` [compound 23, 4-Benzylcoumarin-7-O-sulfamate]: on steroid sulfatase (STS) [2], the IC50 is 75 nM, the inhibition at 0.01 µM stood at 8%, the inhibition at 0.1 µM worked out at 55% and the inhibition at 1 µM worked out at 70%. For the same molecule, on steroid sulfatase (STS) [2], the inhibition at 10 µM was 84%. In addition, at steroid sulfatase (STS) [1], 0.01 µM produced 2% inhibition, the inhibition at 0.1 µM is 61%, the inhibition at 1 µM worked out at 96% and 10 µM produced 99% inhibition. Also, on steroid sulfatase (STS) [1], the 50% inhibitory concentration (IC50) is 64 nM.
On to `CCCCCCCCCCCCCCc1c(C)c2ccc(OS(N)(=O)=O)cc2oc1=O` [compound 37, 4-Methyl 3-tetradecylcoumarin-7-O-sulfamate], for which the midpoint of inhibition on steroid sulfatase (STS) [1], the IC50, lay at 10000 nM.
On steroid sulfatase (STS) [1], `CCCCCCCCCCCc1cc(=O)oc2cc(OS(N)(=O)=O)ccc12` [compound 16, 4-Undecylcoumarin-7-O-sulfamate] showed an inhibition at 0.01 µM of 8%, an inhibition at 0.1 µM of 56%, an inhibition at 1 µM of 92% and an inhibition at 10 µM of 97%. For the same molecule, at steroid sulfatase (STS) [1], the midpoint of inhibition, the IC50, lay at 73 nM.
With `NS(=O)(=O)Oc1ccc2c(CC34CC5CC(CC(C5)C3)C4)cc(=O)oc2c1` [compound 27, 4-(1-Adamantanemethyl)coumarin-7-O-sulfamate], at steroid sulfatase (STS) [1], at 0.1 µM the inhibition was 8% and at 1 µM the inhibition was 96%.
At steroid sulfatase (STS) [1], `CCCCCCCCCCCc1c(C)c2ccc(OS(N)(=O)=O)cc2oc1=O` [compound 34, 4-Methyl-3-undecylcoumarin-7-O-sulfamate] showed an IC50 of 2000 nM. This counts as single-digit micromolar.
As to `Cc1c(CCC2CCCCC2)c(=O)oc2cc(OS(N)(=O)=O)ccc12` [compound 45, 3-(2-Cyclohexylethyl)-4-methylcoumarin-7-O-sulfamate], on steroid sulfatase (STS) [1], testing at 0.1 µM gave an inhibition of 37% and the inhibition at 1 µM was 99%.
`Cc1c(Cl)c(=O)oc2cc(OS(N)(=O)=O)ccc12` [compound 39, 3-Chloro-4-methylcoumarin-7-O-sulfamate]: on steroid sulfatase (STS) [2], half-maximal inhibition (IC50) was put at 600 nM, the inhibition at 0.1 µM was 29%, the inhibition at 1 µM was determined as 67% and the inhibition at 10 µM is 87%.

The values above are taken from PMC6173509, “C-3- and C-4-Substituted Bicyclic Coumarin Sulfamates as Potent Steroid Sulfatase Inhibitors” (ACS Omega, 2018).
